Data: PMC12491518, “Fabrication of cytotoxic mirror image nanopores” (Nature Communications, 2025)
Where a SMILES comes first, the peptide text is derived from it. [ ]: non-standard residue; d: D form.

Key:
proteinase K = proteinase K (Parengyodontium album, UniProt P06873); experiment: Proteinase K enzyme activity on peptides (SDS-PAGE); type: in vitro ADME; details: 0.5 mg/ml proteinase K, 63°C, 30 min, 10 mM phosphate buffer with 0.1% DDM pH 7.4; SDS-PAGE and bilayer insertion
Description: applied through Ag/AgCl electrodes with agarose salt bridges. The pore formation in the […]
The 'reverse potential' (Vm) was calculated using the Goldman-Hodgkin-Katz equation1. […]
In this equation, R is the universal gas constant (8.314 J.K-1.mol-1), T is the temperature in Kelvin (K = °C + 273.15), F is Faraday's constant (96485 C.mol-1), PK+ is the membrane permeability for K+, PCl- is the relative membrane permeability for Cl-, [K+]cis is the concentration of K+ in the cis side, [K+]trans is the concentration of K+ in the trans side, [Cl-]cis is the concentration of Cl- in the cis side and [Cl-]trans is the concentration of Cl- in the trans side.
The reverse potential for DpPorA and DpPorA DE was calculated to be +21 mV and +40 mV, […]
c) Proteinase K enzyme activity on DpPorA and DpPorA DE pores
DpPorA peptides were prepared in 10 mM phosphate buffer with 0.1% DDM (pH 7.4). A final concentration of 0.5 mg/ml of freshly prepared proteinase K solution was added to the samples.
The reaction mixtures were heated at 63°C for 30 min. The proteolysis was terminated by adding 2 mM PMSF (phenylmethyl sulfonyl fluoride).2 The reaction products were loaded on a Mini-PROTEAN® TGX™ precast gel (Bio-Rad) with Protein Standard Marker (Bio-Rad) […]

[1] = Single-channel electrical recordings in planar lipid bilayers; type: biochemical; details: for mean unitary conductance (G): 10 mM HEPES, pH 7.4, DpPorA at +50 mV, n = 83 insertions, DpPorA DE n = 61 insertions; for experimental conductance Gexp: Supplementary Table 1
Description: High-resolution electrical recordings for the single-channel characterization were conducted in planar lipid bilayers made up of 1,2-diphytanoyl-sn-glycero-3-phosphocholine (DPhPC, Avanti Polar Lipids)[23],[27],[51]. The lipid bilayer is formed across a polytetrafluoroethylene (Teflon) aperture of ~100 µm in diameter. Teflon is placed between the two sides of the Delrin bilayer chamber, partitioning it into cis and trans compartments (600 µL each). For constructing a solvent-free lipid bilayer, the aperture is made lipophilic by pre-painting both sides with hexadecane in n-pentane (1 μL, 5 mg mL^−1)[51]. After ~10 min, the chambers were filled with buffered electrolytes (1 M KCl, 10 mM HEPES, pH 7.4), and DPhPC in n-pentane (1 μL, 5 mg mL^−1) was added. After ~15 min incubation, the lipid bilayer is formed by raising and lowering the electrolyte solution, bringing the two lipid monolayers together at the aperture. The cis compartment was connected to the ground electrode, while the trans compartment was connected to the working live electrode. Subsequently, DpPorA or DpPorA DE peptides solubilized in 0.1% DDM (1 µL, 100 µg mL^−1) were consistently introduced into the cis compartment of the bilayer. The peptide pore insertion was facilitated by mixing the bilayer chamber and applying a high voltage of +200 mV. The single-channel electrical properties of the peptide pores and analyte-induced pore blockages were examined in 1 M KCl, 10 mM HEPES, pH 7.4. Ion selectivity was assessed under asymmetric salt conditions with a KCl concentration gradient across the planar lipid bilayer (0.15 M cis/1 M trans) (SI text)[27]. The ion current was acquired and amplified using an Axopatch 200B amplifier, digitized with Digidata 1550B digitizer, and recorded using the pClamp 11 acquisition software (Molecular Devices, CA). The current signals were filtered with a 2 kHz low-pass filter frequency and 10 kHz sampling frequency, or with 10 kHz low-pass filter frequency and 50 kHz sampling frequency, in line with the requirement.

[2] = GUV-based molecular transport assay; type: biochemical; details: 100 mM KCl 10 mM HEPES pH 7.4, mean ± S.D., N = 4 batches
Description: The giant unilamellar vesicles (GUVs) were constructed using gel-assisted swelling methodology and labeled with 0.05 mol% ATTO 550 DOPE[27],[44],[61]. Thin lipid films were spread on polyvinyl alcohol (PVA) coated glass slides using 30 µL of a 1 mg/mL solution of DOPC (Cis and Ent lipids prepared separately). […] The successful formation of vesicles was verified in real time by phase-contrast microscopy. To study the transport across DpPorA and DpPorA DE pores, the peptides were added to GUVs (at a concentration of 10–15 µM in 0.1% DDM) along with the fluorescent hydrophilic molecules (namely Alexa Fluor 350 Hydrazide: M.W-349 Da, Alexa Fluor 555 Hydrazide: M.W-1150 Da, ATTO 488 Dextran: M.W-3000 Da)[62]. The uptake of fluorescent molecules was monitored over 40 min, with time-lapse imaging at every minute for the first 10 min and then at every 5 min for the following 30 min, tracking either single vesicles or multiple vesicles within the same field of view. Later on, individual vesicles were further scanned and imaged to obtain datasets for statistical analysis. Control experiments were conducted under identical conditions using vesicles prepared with the same detergent concentration but without peptide incorporation. At each time point, the vesicle images were blank-subtracted, and the intensity inside the vesicle ( Iin ) was normalized against the intensity outside ( Iout )[27]. Complete permeabilization of the vesicles was marked by Iin/Iout ≥ 0.98 for peptide-reconstituted vesicles, while Iin/Iout ≥ 0.95 was considered as the cut-off for permeabilization in the control vesicles.

[3] = DOPC (Cis-DOPC) GUVs, peptide 10 to 15 µM in 0.1% DDM

proteinase K, sequence (P06873 106-384, species assumed): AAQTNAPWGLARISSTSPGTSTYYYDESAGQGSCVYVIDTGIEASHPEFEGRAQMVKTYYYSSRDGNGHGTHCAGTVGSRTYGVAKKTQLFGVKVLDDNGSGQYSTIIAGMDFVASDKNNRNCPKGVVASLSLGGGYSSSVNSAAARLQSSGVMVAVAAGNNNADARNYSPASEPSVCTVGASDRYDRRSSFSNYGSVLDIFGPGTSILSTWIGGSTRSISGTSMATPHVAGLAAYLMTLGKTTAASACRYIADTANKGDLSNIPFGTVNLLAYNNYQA

SMILES	stability to proteinase K (proteinase K)	mean unitary conductance (G) ([1]; 1 M KCl) [nS]	experimental conductance Gexp [1] [nS]	percentage of permeabilization, ATTO 488 Dextran [2, 3] [%]	percentage of permeabilization, Alexa Fluor 350 [2, 3] [%]	percentage of permeabilization, Alexa Fluor 555 [2, 3] [%]	unitary conductance (G) of proteinase K treated peptides ([1]; 1 M KCl, after proteinase K treatment, n = 25) [nS]	pores with slightly higher current at negative than positive voltages ([1]; 1 M KCl, current rectification of n = 30 single channels) [%]	percentage of permeabilization, ATTO 488 Dextran ([2]; Ent-DOPC GUVs, 0.1% DDM) [%]	percentage of permeabilization, Alexa Fluor 350 ([2]; Ent-DOPC GUVs, 0.1% DDM) [%]	percentage of permeabilization, Alexa Fluor 555 ([2]; Ent-DOPC GUVs, 0.1% DDM) [%]
CC[C@@H](C)[C@@H](NC(=O)[C@H](N)CCSC)C(=O)N[C@H](CC(=O)O)C(=O)N[C@H](CCC(N)=O)C(=O)N[C@@H](C(=O)N[C@@H](C(=O)N[C@H](CCC(=O)O)C(=O)N[C@@H](C(=O)N[C@H](Cc1ccccc1)C(=O)NCC(=O)N[C@H](CCC(N)=O)C(=O)N[C@H](CC(C)C)C(=O)NCC(=O)N[C@@H](C(=O)N[C@H](Cc1ccccc1)C(=O)N[C@H](CC(C)C)C(=O)NCC(=O)NCC(=O)N[C@H](Cc1ccccc1)C(=O)NCC(=O)N[C@H](CC(N)=O)C(=O)N[C@@H](C(=O)N[C@H](Cc1ccccc1)C(=O)N[C@H](CCCCN)C(=O)NCC(=O)N[C@H](CC(C)C)C(=O)N[C@H](CCCCN)C(=O)N[C@H](C)C(=O)N[C@@H](C(=O)N[C@@H](C(=O)N[C@H](C)C(=O)N[C@@H](C(=O)N[C@@H](C(=O)N[C@@H](C(=O)N[C@H](CCCCN)C(=O)N[C@H](Cc1c[nH]c2ccccc12)C(=O)N[C@@H](C(=O)N[C@H](C)C(=O)N[C@H](C)C(=O)N[C@H](CCCCN)C(=O)O)[C@H](C)O)C(C)C)[C@H](C)CC)[C@H](C)O)[C@H](C)CC)C(C)C)[C@H](C)CC)[C@H](C)O)[C@H](C)CC)[C@H](C)O)[C@H](C)CC [DpPorA DE] (H-[dM][dI][dD][dQ][dI][dT][dE][dI][dF]G[dQ][dL]G[dT][dF][dL]GG[dF]G[dN][dI][dF][dK]G[dL][dK][dA][dV][dI][dA][dT][dI][dV][dK][dW][dT][dA][dA][dK]-OH; N-terminus and C-terminus assumed)	protease-stable	3.80 ± 0.2	3.8 ± 0.2	53.8 ± 8	89.2 ± 3.7	71.3 ± 3.5					
CC[C@@H](C)[C@@H](NC(=O)[C@H](N)CCSC)C(=O)N[C@H](CC(=O)O)C(=O)N[C@H](CCC(N)=O)C(=O)N[C@@H](C(=O)N[C@@H](C(=O)N[C@H](CCC(=O)O)C(=O)N[C@@H](C(=O)N[C@H](Cc1ccccc1)C(=O)NCC(=O)N[C@H](CCC(N)=O)C(=O)N[C@H](CC(C)C)C(=O)NCC(=O)N[C@@H](C(=O)N[C@H](Cc1ccccc1)C(=O)N[C@H](CC(C)C)C(=O)NCC(=O)NCC(=O)N[C@H](Cc1ccccc1)C(=O)NCC(=O)N[C@H](CC(N)=O)C(=O)N[C@@H](C(=O)N[C@H](Cc1ccccc1)C(=O)N[C@H](CCCCN)C(=O)NCC(=O)N[C@H](CC(C)C)C(=O)N[C@H](CCCCN)C(=O)N[C@H](CC(=O)O)C(=O)N[C@@H](C(=O)N[C@@H](C(=O)N[C@H](CCC(=O)O)C(=O)N[C@@H](C(=O)N[C@@H](C(=O)N[C@@H](C(=O)N[C@H](CCCCN)C(=O)N[C@H](Cc1c[nH]c2ccccc12)C(=O)N[C@@H](C(=O)N[C@H](C)C(=O)N[C@H](C)C(=O)N[C@H](CCCCN)C(=O)O)[C@H](C)O)C(C)C)[C@H](C)CC)[C@H](C)O)[C@H](C)CC)C(C)C)[C@H](C)CC)[C@H](C)O)[C@H](C)CC)[C@H](C)O)[C@H](C)CC [DpPorA] (H-[dM][dI][dD][dQ][dI][dT][dE][dI][dF]G[dQ][dL]G[dT][dF][dL]GG[dF]G[dN][dI][dF][dK]G[dL][dK][dD][dV][dI][dE][dT][dI][dV][dK][dW][dT][dA][dA][dK]-OH; N-terminus and C-terminus assumed)	resistant to proteinase K action	2.80 ± 0.2	2.8 ± 0.2	73.0 ± 14.1	88.9±7.8	67.9± 10.4	2.8 ± 0.2	90	72.70±14.61	95.13±3.54	70.38±4.93
